From patent US9216999B2, “Substituted pyrrolo[2,3-h][1,6]naphthyridines and compositions thereof as JAK inhibitors” (priority 2011, dated 2015)

Columns and labels:
Format in all cases: biochemical
Conditions in all cases: ATP 100 μM
[1] = target: JAK1 (Homo sapiens (Human), UniProt P23458); experiment: Enzyme assay (Assay Example^a 1), JAK1
[2] = target: JAK3 (Homo sapiens (Human), UniProt P52333); experiment: Enzyme assay (Assay Example^a 1), JAK3
[3] = target: Tyk2 (Homo sapiens (Human), UniProt P29597); experiment: Enzyme assay (Assay Example^a 1), Tyk2
[4] = target: JAK2 (Homo sapiens (Human), UniProt O60674); experiment: Enzyme assay (Assay Example^a 1), JAK2

Chain of Tyk2 (P29597 whole entry): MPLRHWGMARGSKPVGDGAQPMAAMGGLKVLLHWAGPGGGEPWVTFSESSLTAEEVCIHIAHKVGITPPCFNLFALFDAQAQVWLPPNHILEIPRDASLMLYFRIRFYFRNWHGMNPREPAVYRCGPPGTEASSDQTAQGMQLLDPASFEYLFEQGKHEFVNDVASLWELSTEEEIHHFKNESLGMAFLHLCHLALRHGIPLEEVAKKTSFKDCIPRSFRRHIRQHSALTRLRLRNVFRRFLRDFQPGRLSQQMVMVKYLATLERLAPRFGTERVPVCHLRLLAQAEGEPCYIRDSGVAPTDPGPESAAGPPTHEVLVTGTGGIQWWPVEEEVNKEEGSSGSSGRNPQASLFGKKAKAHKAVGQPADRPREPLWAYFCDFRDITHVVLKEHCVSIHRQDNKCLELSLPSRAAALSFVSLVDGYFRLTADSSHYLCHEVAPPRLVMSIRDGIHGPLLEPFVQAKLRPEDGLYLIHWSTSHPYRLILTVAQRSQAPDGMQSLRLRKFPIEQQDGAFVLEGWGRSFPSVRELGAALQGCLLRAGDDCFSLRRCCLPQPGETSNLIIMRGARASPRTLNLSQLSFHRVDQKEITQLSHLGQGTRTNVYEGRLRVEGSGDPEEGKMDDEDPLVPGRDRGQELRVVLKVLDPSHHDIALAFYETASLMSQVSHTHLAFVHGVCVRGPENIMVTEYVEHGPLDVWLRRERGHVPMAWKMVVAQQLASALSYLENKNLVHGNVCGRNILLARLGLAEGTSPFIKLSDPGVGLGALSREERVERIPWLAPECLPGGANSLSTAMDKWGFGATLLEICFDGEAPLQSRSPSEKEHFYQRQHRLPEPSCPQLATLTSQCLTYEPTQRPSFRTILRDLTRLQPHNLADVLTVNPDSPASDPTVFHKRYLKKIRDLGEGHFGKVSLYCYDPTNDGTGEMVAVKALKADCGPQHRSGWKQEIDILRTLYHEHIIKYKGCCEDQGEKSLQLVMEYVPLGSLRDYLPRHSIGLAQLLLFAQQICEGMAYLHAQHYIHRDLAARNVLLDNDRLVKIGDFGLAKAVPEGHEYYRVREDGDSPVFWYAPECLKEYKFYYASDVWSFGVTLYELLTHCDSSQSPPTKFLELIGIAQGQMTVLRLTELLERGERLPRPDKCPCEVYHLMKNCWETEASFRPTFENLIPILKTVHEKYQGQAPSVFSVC
Chain of JAK3 (P52333 whole entry): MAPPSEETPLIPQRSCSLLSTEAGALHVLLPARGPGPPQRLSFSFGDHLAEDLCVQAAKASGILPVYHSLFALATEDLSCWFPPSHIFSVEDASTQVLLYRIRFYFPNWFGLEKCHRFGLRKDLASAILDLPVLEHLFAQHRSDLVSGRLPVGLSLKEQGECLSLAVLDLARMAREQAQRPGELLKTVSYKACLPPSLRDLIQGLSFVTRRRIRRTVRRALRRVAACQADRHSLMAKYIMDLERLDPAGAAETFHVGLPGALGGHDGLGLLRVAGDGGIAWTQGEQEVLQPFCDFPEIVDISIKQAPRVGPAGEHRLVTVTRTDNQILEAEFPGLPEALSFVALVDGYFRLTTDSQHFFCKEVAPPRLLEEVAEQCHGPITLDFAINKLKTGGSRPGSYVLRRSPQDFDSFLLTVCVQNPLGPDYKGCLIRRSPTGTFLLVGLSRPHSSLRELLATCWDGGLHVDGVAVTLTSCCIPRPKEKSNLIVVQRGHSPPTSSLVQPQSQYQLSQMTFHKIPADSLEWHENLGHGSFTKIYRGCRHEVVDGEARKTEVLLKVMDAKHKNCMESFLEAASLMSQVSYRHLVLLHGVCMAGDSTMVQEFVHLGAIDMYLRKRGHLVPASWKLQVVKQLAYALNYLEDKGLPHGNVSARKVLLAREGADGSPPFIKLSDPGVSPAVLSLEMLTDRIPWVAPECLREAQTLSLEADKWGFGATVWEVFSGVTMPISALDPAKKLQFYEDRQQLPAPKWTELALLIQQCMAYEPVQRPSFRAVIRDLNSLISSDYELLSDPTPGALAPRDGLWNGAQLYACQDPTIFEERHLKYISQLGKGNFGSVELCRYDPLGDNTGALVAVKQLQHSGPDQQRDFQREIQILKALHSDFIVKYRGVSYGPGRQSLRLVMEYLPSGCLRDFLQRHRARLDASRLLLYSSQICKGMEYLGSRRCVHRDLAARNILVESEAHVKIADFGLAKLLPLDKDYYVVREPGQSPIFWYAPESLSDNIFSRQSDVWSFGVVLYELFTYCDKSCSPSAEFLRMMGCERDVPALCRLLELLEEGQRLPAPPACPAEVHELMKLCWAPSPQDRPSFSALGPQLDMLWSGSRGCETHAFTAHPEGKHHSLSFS

O=C(CNC[C@H]1CC[C@H](c2nnn3cnc4[nH]ccc4c23)CC1)NCC(F)(F)F [compound 341, 2-({[trans-4-(7H-pyrrolo[3,2-e][1,2,3]triazolo[1,5-c]pyrimidin-1-yl)cyclohexyl]methyl}amino)-N-(2,2,2-trifluoroethyl)acetamide]
IC50 [1]: 0.01 µM | IC50 [2]: 0.31 µM | IC50 [3]: 0.32 µM | IC50 [4]: 0.059 µM

FC(F)(F)C(F)(F)CNC[C@H]1CC[C@H](c2nnn3cnc4[nH]ccc4c23)CC1 [compound 342, N-{[trans-4-(7H-pyrrolo[3,2-e][1,2,3]triazolo[1,5-c]pyrimidin-1-yl)cyclohexyl]methyl}-2,2,3,3,3-pentafluoropropan-1-amine]
IC50 [1]: 0.0039 µM | IC50 [2]: 0.13 µM | IC50 [3]: 0.35 µM | IC50 [4]: 0.034 µM

OC(CNC[C@H]1CC[C@H](c2nnn3cnc4[nH]ccc4c23)CC1)C(F)(F)F (stereo partly drawn) [compound 343, 3-({[trans-4-(7H-pyrrolo[3,2-e][1,2,3]triazolo[1,5-c]pyrimidin-1-yl)cyclohexyl]methyl}amino)-1,1,1-trifluoropropan-2-ol]
IC50 [1]: 0.01 µM | IC50 [2]: 0.33 µM | IC50 [3]: 0.44 µM | IC50 [4]: 0.063 µM

c1cc2c(ncn3nnc([C@H]4CC[C@H](CNC5CSC5)CC4)c23)[nH]1 [compound 344, N-{[trans-4-(7H-pyrrolo[3,2-e][1,2,3]triazolo[1,5-c]pyrimidin-1-yl)cyclohexyl]methyl}thietan-3-amine]
IC50 [1]: 0.012 µM | IC50 [2]: 0.52 µM | IC50 [3]: 0.39 µM | IC50 [4]: 0.068 µM

CCS(=O)(=O)N1CCN(C[C@H]2CC[C@H](c3nnn4cnc5[nH]ccc5c34)CC2)CC1 [compound 345, 1-(trans-4-{[4-(ethylsulfonyl)piperazin-1-yl]methyl}cyclohexyl)-7H-pyrrolo[3,2-e][1,2,3]triazolo[1,5-c]pyrimidine]
IC50 [1]: 0.025 µM | IC50 [2]: > 1 µM | IC50 [3]: > 1 µM | IC50 [4]: 0.2 µM

O=C(NCC(O)(c1ccccc1)C(F)(F)F)[C@H]1CC[C@H](c2nnn3cnc4[nH]ccc4c23)CC1 (stereo partly drawn) [compound 346, trans-4-(7H-Pyrrolo[3,2-e][1,2,3]triazolo[1,5-c]pyrimidin-1-yl)-N-(3,3,3-trifluoro-2-hydroxy-2-phenylpropyl)cyclohexanecarboxamide]
IC50 [1]: 0.0051 µM | IC50 [2]: > 1 µM | IC50 [3]: > 1 µM | IC50 [4]: 0.06 µM

NC(=O)[C@H]1CC[C@H](c2nnn3cnc4[nH]ccc4c23)CC1 [compound 348, trans-4-(7H-pyrrolo[3,2-e][1,2,3]triazolo[1,5-c]pyrimidin-1-yl)cyclohexanecarboxamide]
IC50 [1]: 0.0099 µM | IC50 [2]: 0.75 µM | IC50 [3]: 0.29 µM | IC50 [4]: 0.051 µM

Cc1ccc(CNC(=O)[C@H]2CC[C@H](c3nnn4cnc5[nH]ccc5c34)CC2)o1 [compound 349, trans-N-[(5-methylfuran-2-yl)methyl]-4-(7H-pyrrolo[3,2-e][1,2,3]triazolo[1,5-c]pyrimidin-1-yl)cyclohexanecarboxamide]
IC50 [1]: 0.0059 µM | IC50 [2]: > 1 µM | IC50 [3]: 0.25 µM | IC50 [4]: 0.048 µM

N#CC(NC(=O)[C@H]1CC[C@H](c2nnn3cnc4[nH]ccc4c23)CC1)c1ccccc1 (stereo partly drawn) [compound 351, trans-N-[cyano(phenyl)methyl]-4-(7H-pyrrolo[3,2-e][1,2,3]triazolo[1,5-c]pyrimidin-1-yl)cyclohexanecarboxamide]
IC50 [1]: 0.012 µM | IC50 [2]: > 1 µM | IC50 [3]: > 1 µM | IC50 [4]: 0.089 µM

O=C(NCCc1ccc(Cl)cc1)[C@H]1CC[C@H](c2nnn3cnc4[nH]ccc4c23)CC1 [compound 352, trans-N-(4-chlorophenethyl)-4-(7H-pyrrolo[3,2-e][1,2,3]triazolo[1,5-c]pyrimidin-1-yl)cyclohexanecarboxamide]
IC50 [1]: 0.005 µM | IC50 [2]: > 1 µM | IC50 [3]: > 1 µM | IC50 [4]: 0.029 µM

O=C(NC[C@@H](O)c1ccccc1)[C@H]1CC[C@H](c2nnn3cnc4[nH]ccc4c23)CC1 [compound 353, trans-N-[(S)-2-hydroxy-2-phenylethyl]-4-(7H-pyrrolo[3,2-e][1,2,3]triazolo[1,5-c]pyrimidin-1-yl)cyclohexanecarboxamide]
IC50 [1]: 0.0029 µM | IC50 [2]: 0.35 µM | IC50 [3]: 0.46 µM | IC50 [4]: 0.031 µM

N#CCNC(=O)[C@H]1CC[C@H](c2nnn3cnc4[nH]ccc4c23)CC1 [compound 355, trans-N-(cyanomethyl)-4-(7H-pyrrolo[3,2-e][1,2,3]triazolo[1,5-c]pyrimidin-1-yl)cyclohexanecarboxamide]
IC50 [1]: 0.0042 µM | IC50 [2]: > 1 µM | IC50 [3]: 0.15 µM | IC50 [4]: 0.033 µM

N#CCCNC(=O)[C@H]1CC[C@H](c2nnn3cnc4[nH]ccc4c23)CC1 [compound 356, trans-N-(2-cyanoethyl)-4-(7H-pyrrolo[3,2-e][1,2,3]triazolo[1,5-c]pyrimidin-1-yl)cyclohexanecarboxamide]
IC50 [1]: 0.0036 µM | IC50 [2]: > 1 µM | IC50 [3]: 0.16 µM | IC50 [4]: 0.036 µM

N#C[C@H]1CCN(C(=O)[C@H]2CC[C@H](c3nnn4cnc5[nH]ccc5c34)CC2)C1 [compound 357, (S)-1-[trans-4-(7H-pyrrolo[3,2-e][1,2,3]triazolo[1,5-c]pyrimidin-1-yl)cyclohexanecarbonyl]pyrrolidine-3-carbonitrile]
IC50 [1]: 0.067 µM | IC50 [2]: > 1 µM | IC50 [3]: 0.87 µM | IC50 [4]: 0.33 µM

O=C([C@H]1CC[C@H](c2nnn3cnc4[nH]ccc4c23)CC1)N1CC[C@H](O)C1 [compound 358, [trans-4-(7H-pyrrolo[3,2-e][1,2,3]triazolo[1,5-c]pyrimidin-1-yl)cyclohexyl][(S)-3-hydroxypyrrolidin-1-yl]methanone]
IC50 [1]: 0.63 µM | IC50 [2]: > 1 µM | IC50 [3]: > 1 µM | IC50 [4]: 0.91 µM

O=C(NC1CC1)[C@H]1CC[C@H](c2nnn3cnc4[nH]ccc4c23)CC1 [compound 359, trans-N-cyclopropyl-4-(7H-pyrrolo[3,2-e][1,2,3]triazolo[1,5-c]pyrimidin-1-yl)cyclohexanecarboxamide]
IC50 [1]: 0.042 µM | IC50 [2]: > 1 µM | IC50 [3]: 0.56 µM | IC50 [4]: 0.22 µM

O=C(NCCO)[C@H]1CC[C@H](c2nnn3cnc4[nH]ccc4c23)CC1 [compound 360, trans-N-(2-hydroxyethyl)-4-(7H-pyrrolo[3,2-e][1,2,3]triazolo[1,5-c]pyrimidin-1-yl)cyclohexanecarboxamide]
IC50 [1]: 0.026 µM | IC50 [2]: > 1 µM | IC50 [3]: 0.33 µM | IC50 [4]: 0.1 µM

O=C([C@H]1CC[C@H](c2nnn3cnc4[nH]ccc4c23)CC1)N1CC(O)C1 [compound 361, [trans-4-(7H-pyrrolo[3,2-e][1,2,3]triazolo[1,5-c]pyrimidin-1-yl)cyclohexyl](3-hydroxyazetidin-1-yl)methanone]
IC50 [1]: 0.089 µM | IC50 [2]: > 1 µM | IC50 [3]: > 1 µM | IC50 [4]: 0.25 µM

N#Cc1ccc(CCNC(=O)[C@H]2CC[C@H](c3nnn4cnc5[nH]ccc5c34)CC2)cc1 [compound 362, trans-N-(4-cyanophenethyl)-4-(7H-pyrrolo[3,2-e][1,2,3]triazolo[1,5-c]pyrimidin-1-yl)cyclohexanecarboxamide]
IC50 [1]: 0.0074 µM | IC50 [2]: > 1 µM | IC50 [3]: > 1 µM | IC50 [4]: 0.057 µM

N#CC1CN(C(=O)[C@H]2CC[C@H](c3nnn4cnc5[nH]ccc5c34)CC2)C1 [compound 363, 1-[trans-4-(7H-pyrrolo[3,2-e][1,2,3]triazolo[1,5-c]pyrimidin-1-yl)cyclohexanecarbonyl]azetidine-3-carbonitrile]
IC50 [1]: 0.044 µM | IC50 [2]: > 1 µM | IC50 [3]: > 1 µM | IC50 [4]: 0.29 µM

O=S(=O)(C[C@H]1CC[C@H](c2nnn3cnc4[nH]ccc4c23)CC1)C1CC1 [compound 366, 1-{trans-4-[(cyclopropylsulfonyl)methyl]cyclohexyl}-7H-pyrrolo[3,2-e][1,2,3]triazolo[1,5-c]pyrimidine]
IC50 [1]: 0.011 µM | IC50 [2]: 0.28 µM | IC50 [3]: 0.26 µM | IC50 [4]: 0.028 µM

IC[C@H]1CC[C@H](c2nnn3cnc4[nH]ccc4c23)CC1 [compound 367]
IC50 [1]: 0.00099 µM | IC50 [2]: 0.054 µM | IC50 [3]: 0.0073 µM | IC50 [4]: 0.0043 µM

O=S(=O)(C[C@H]1CC[C@H](c2nnn3cnc4[nH]ccc4c23)CC1)C(F)(F)F [compound 368, 1-(trans-4-{[(Trifluoromethyl)sulfonyl]methyl}cyclohexyl)-7H-pyrrolo[3,2-e][1,2,3]triazolo[1,5-c]pyrimidine]
IC50 [1]: 0.0013 µM | IC50 [2]: 0.37 µM | IC50 [3]: 0.03 µM | IC50 [4]: 0.0061 µM

[N-]=[N+]=NC[C@H]1CC[C@H](c2nnn3cnc4[nH]ccc4c23)CC1 [compound 369, 1-[trans-4-(Azidomethyl)cyclohexyl]-7H-pyrrolo[3,2-e][1,2,3]triazolo[1,5-c]pyrimidine]
IC50 [1]: 0.00033 µM | IC50 [2]: 0.048 µM | IC50 [3]: 0.0092 µM | IC50 [4]: 0.0017 µM

CC(C)(O)c1cn(C[C@H]2CC[C@H](c3nnn4cnc5[nH]ccc5c34)CC2)nn1 [compound 370, 2-(1-{[trans-4-(7H-Pyrrolo[3,2-e][1,2,3]triazolo[1,5-c]pyrimidin-1-yl)cyclohexyl]methyl}-1H-1,2,3-triazol-4-yl)propan-2-ol]
IC50 [1]: 0.0074 µM | IC50 [2]: 0.59 µM | IC50 [3]: > 1 µM | IC50 [4]: 0.097 µM

NC[C@H]1CC[C@H](c2nnn3cnc4[nH]ccc4c23)CC1 [compound 371, [trans-4-(7H-Pyrrolo[3,2-e][1,2,3]triazolo[1,5-c]pyrimidin-1-yl)cyclohexyl]methanamine]
IC50 [1]: 0.0033 µM | IC50 [2]: 0.39 µM | IC50 [3]: 0.18 µM | IC50 [4]: 0.035 µM

N#CCC(=O)NC[C@H]1CC[C@H](c2nnn3cnc4[nH]ccc4c23)CC1 [compound 372, N-{[trans-4-(7H-Pyrrolo[3,2-e][1,2,3]triazolo[1,5-c]pyrimidin-1-yl)cyclohexyl]methyl}-2-cyanoacetamide]
IC50 [1]: 0.0041 µM | IC50 [2]: 0.23 µM | IC50 [3]: 0.41 µM | IC50 [4]: 0.016 µM
